Data: US4923852A, “Aminoalkyl naphthalenediols as host resistance enhancers against viral infections” (Merck & Co., Inc., priority 1987, dated 1990)
“Also recorded” adds a separate entry of the source. Read-outs that look alike come from different tables or passages of the source.

Assays:
[1] = test system: AIDS or AIDS-related complex (ARC); conditions: clinical; cited from earlier work
[2] = cited from earlier work
[3] = in vivo, cited from earlier work
HIV [4] = conditions: clinical; cited from earlier work
T cell levels = conditions: 13 AIDS patients with perpetually swollen glands; cited from earlier work
[5] = test system: HIV reverse transcriptase; conditions: cited from earlier work
Pseudomonas aeruginosa = test: In vivo immunopotentiation against challenge with lethal doses of Pseudomonas aeruginosa, cyclophosphamide-immunocompromised mouse; parameters: species or system mouse (random outbred albino CFl female); conditions: 250 mg/kg cyclophosphamide i.p., 4 days prior to challenge
Experimental: An immunocompromised mouse model, established by intraperitoneal treatment of random outbred albino CFl female mice (ca. 25g) with 250 mg/kg body weight of cyclophosphamide (CY) 4 days Prior to bacterial challenge with Pseudomonas aeruginosa, was used as the assay system. In this model, test compounds were injected only once (2 hours) after CY treatment. After bacterial challenge, LD50 's (50% lethal doses) were determined. Increased LD50 's in treated mice over controls indicated a return to normality. The LD50 for untreated or vehicle-treated mice was routinely 10^6 -10^7 colony forming units (CFU) of P. aeruginosa organisms. After CY treatment, the LD50 was reduced to 10^1 to 10^2 CFU's. The protection afforded by test compound (Protective Index) was determined by calculating the number of LD50 's of protection of treated animals over the LD50 of CY controls.

[6] = test system: reverse transcriptase in several retroviruses; conditions: in vitro; cited from earlier work
HIV [7] = conditions: cited from earlier work
[8] = test system: AIDS-related Kaposi's sarcoma; conditions: some AIDS-related Kaposi's sarcoma cases; cited from earlier work

CO[C@H]1/C=C/O[C@@]2(C)Oc3c(C)c(O)c4c(c3C2=O)C2=NC3(CCN(CC(C)C)CC3)NC2=C(NC(=O)/C(C)=C\C=C\[C@H](C)[C@H](O)[C@@H](C)[C@@H](O)[C@@H](C)[C@H](OC(C)=O)[C@@H]1C)C4=O [Ansamycin, rifabutin]
efficacy in AIDS or ARC patients [1]: some efficacy in treating AIDS patients with an opportunistic infection caused by the bacterium Mycobacterium aviumintracellulare

Cc1cn([C@H]2C[C@H](N=[N+]=[N-])[C@@H](CO)O2)c(=O)[nH]c1=O [Azidothymidine, 3'-azido-3'-deoxythymidine]
adverse / toxic effects in humans ([2]; clinical): some toxicity, with anemia and headaches | oral absorption ([3]; po): Well absorbed orally | half-life in the body [3]: relatively short half-life | penetration of central nervous system [3]: effectively penetrates central nervous system | efficacy in AIDS or ARC patients [1]: promise in prolonging lives of patients with AIDS or AIDS-related complex (ARC)

CC(C)(N1CC1C#N)N1CC1C(N)=O (stereo not shown) [Azimexon]
adverse / toxic effects in humans ([2]; clinical): only toxic effect was mild hemolysis | efficacy in AIDS or ARC patients [1]: improvements in symptoms and immune function in patients with ARC but not AIDS

CC(C)(S)[C@@H](N)C(=O)O [D-Penicillamine, 3-mercapto-D-valine]
effect on HIV reproduction / viral replication in humans (HIV [4]): Inhibits HIV reproduction in humans; also recorded: suppressed the virus | effect on T cell levels (T cell levels): temporarily depressed T cell levels

O=C(O)P(=O)(O)O [Foscarnet, trisodium phosphonoformate]
adverse / toxic effects in humans ([2]; in vivo): serious side effects | inhibition of HIV reverse transcriptase [5]: Inhibits HIV reverse transcriptase activity in vitro at levels pharmacologically acceptable in vivo

CC(=O)Nc1ccc(C(=O)O)cc1.CC(=O)Nc1ccc(C(=O)O)cc1.CC(=O)Nc1ccc(C(=O)O)cc1.CC(O)CN(C)C.CC(O)CN(C)C.CC(O)CN(C)C.O=c1[nH]cnc2c1ncn2[C@@H]1O[C@H](CO)[C@@H](O)[C@H]1O [Inosine pranobex, p-Acetamidobenzoic acid salt of dimethylaminoisopropanol: inosinate complex]
effect on immune function in patients [1]: improve immune function in ARC patients

NC(=O)c1ncn([C@@H]2O[C@H](CO)[C@@H](O)[C@H]2O)n1 [Ribavirin, 1-β-D-ribofuranosyl-1,2,4-triazole-3-carboxamide]
safety profile ([2]; in vivo): acceptable | tolerability ([2]; in vivo): well tolerated | effect on HIV reproduction / viral replication in humans (HIV [4]): inhibited viral replication | effect on immune function in patients [1]: improved immune function in AIDS patients

Cc1ccc(C(=O)Nc2ccc(S(=O)(=O)O)c3cc(S(=O)(=O)O)cc(S(=O)(=O)O)c23)cc1NC(=O)c1cccc(NC(=O)Nc2cccc(C(=O)Nc3cc(C(=O)Nc4ccc(S(=O)(=O)O)c5cc(S(=O)(=O)O)cc(S(=O)(=O)O)c45)ccc3C)c2)c1 [Suramin]
inhibition of HIV reverse transcriptase [5]: Potent inhibitor of HIV reverse transcriptase | efficacy in AIDS or ARC patients [1]: little or no evidence of clinical improvement or immunologic recovery

O=P1(N(CCCl)CCCl)NCCCO1 (stereo not shown) [cyclophosphamide]
LD50 of P. aeruginosa after CY treatment (Pseudomonas aeruginosa): 10^1 to 10^2 CFU

ammonium 21-tungsto-9-antimoniate [HPA-23]
inhibition of reverse transcriptase in several retroviruses [6]: Inhibits reverse transcriptase in several retroviruses in vitro | efficacy in AIDS or ARC patients [1]: no therapeutic benefit has been documented in AIDS patients | effect on HIV infectivity / growth (HIV [7]): some tendency to check the growth of HIV

α-Interferon
tumor regression [8]: induced tumor regression in some AIDS-related Kaposi's sarcoma cases | effect on HIV infectivity / growth (HIV [7]): Checks the growth of HIV in vitro
